# Test results published in patent publication US7074789B2, “Kinase inhibitors” (Amgen Inc., priority 1999, dated 2006).
# Assays:
# Assay type in all cases: biochemical
# [1] = target: T1, Tek (Homo sapiens, UniProt Q02763); experiment: Kinase inhibition assay (33P transfer), Tek; details: read-out: Tek-1
# T1 construct: Kinases are expressed as either kinase domains or full length constructs; made in house
# Method in brief: (§1)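 Radiometric format: recombinant tagged kinase (catalytic domain or whole protein, sometimes combined with regulatory polypeptides) phosphorylates immobilised poly(Glu,Tyr) 4:1 or poly(Arg,Ser) 3:1 using [33P]ATP. Wells are washed in 0.5% phosphoric acid, then counted. IC50 is taken where substrate labelling falls by half.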
# [2] = target: T2, Lck (Homo sapiens, UniProt P06239); experiment: Kinase inhibition assay (33P transfer), Lck; details: Table 3; read-out: Lck-1
# T2 construct: Kinases are expressed as either kinase domains or full length constructs; made in house
# Method in brief: (§2)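 Radiometric readout: 33P incorporated into surface-bound poly(Glu,Tyr) 4:1 or poly(Arg,Ser) 3:1 is counted by liquid scintillation after a 0.5% phosphoric acid wash. Enzymes were GST or polyHis fusions (kinase domain or full length) from E. coli or High Five insect cells.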
# [3] = target: T3, IGFR-1 (Homo sapiens, UniProt P08069); experiment: Kinase inhibition assay (33P transfer), IGFR-1; details: Table 2, kinase inhibition class
# T3 construct: Kinases are expressed as either kinase domains or full length constructs; made in house
# [4] = target: T4, Itk (Homo sapiens, UniProt Q08881); experiment: Kinase inhibition assay (33P transfer), Itk; details: Table 3; read-out: Itk-1
# T4 construct: Kinases are expressed as either kinase domains or full length constructs; made in house
# T4 sequence (Q08881 1-620): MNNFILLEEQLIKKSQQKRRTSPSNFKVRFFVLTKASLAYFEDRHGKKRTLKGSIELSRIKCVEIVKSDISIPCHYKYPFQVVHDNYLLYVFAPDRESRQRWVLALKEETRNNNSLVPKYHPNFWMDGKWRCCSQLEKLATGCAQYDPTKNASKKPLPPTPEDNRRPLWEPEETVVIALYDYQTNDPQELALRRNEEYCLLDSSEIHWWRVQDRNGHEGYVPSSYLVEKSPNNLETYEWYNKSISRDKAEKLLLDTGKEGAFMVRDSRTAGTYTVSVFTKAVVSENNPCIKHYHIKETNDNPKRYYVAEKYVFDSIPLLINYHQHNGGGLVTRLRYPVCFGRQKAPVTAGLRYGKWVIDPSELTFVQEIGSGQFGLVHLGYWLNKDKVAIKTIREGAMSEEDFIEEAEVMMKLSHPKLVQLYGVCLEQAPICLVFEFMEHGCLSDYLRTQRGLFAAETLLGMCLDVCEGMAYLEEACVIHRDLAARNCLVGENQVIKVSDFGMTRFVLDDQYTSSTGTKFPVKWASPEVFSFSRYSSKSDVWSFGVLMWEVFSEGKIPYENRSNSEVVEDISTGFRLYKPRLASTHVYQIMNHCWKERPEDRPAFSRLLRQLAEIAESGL
# Method in brief: as §1
# [5] = target: T5, ErbB4 (Homo sapiens, UniProt Q15303); experiment: Kinase inhibition assay (33P transfer), ErbB4; details: read-out: ErbB4-1
# T5 construct: Kinases are expressed as either kinase domains or full length constructs; made in house
# [6] = target: T6, Zap-70 (Homo sapiens, UniProt P43403); experiment: Kinase inhibition assay (33P transfer), Zap-70; details: Table 3; read-out: Zap-1
# T6 construct: Kinases are expressed as either kinase domains or full length constructs; made in house
# T6 sequence (P43403 1-619): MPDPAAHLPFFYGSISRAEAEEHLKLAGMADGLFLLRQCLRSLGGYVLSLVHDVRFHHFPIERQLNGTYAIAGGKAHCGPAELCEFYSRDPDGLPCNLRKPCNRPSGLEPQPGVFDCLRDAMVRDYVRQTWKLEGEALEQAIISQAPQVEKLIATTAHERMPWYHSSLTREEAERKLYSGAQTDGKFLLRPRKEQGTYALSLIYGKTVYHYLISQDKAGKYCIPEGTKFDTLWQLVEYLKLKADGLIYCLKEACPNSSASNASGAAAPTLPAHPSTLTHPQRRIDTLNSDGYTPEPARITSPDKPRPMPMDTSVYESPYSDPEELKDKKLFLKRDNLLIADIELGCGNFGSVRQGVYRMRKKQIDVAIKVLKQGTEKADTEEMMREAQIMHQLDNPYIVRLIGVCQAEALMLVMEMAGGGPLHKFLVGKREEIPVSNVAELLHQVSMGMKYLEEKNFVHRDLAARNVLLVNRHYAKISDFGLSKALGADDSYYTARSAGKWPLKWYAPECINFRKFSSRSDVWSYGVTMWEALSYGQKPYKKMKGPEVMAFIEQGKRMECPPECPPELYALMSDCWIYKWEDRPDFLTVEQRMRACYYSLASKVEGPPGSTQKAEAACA
# Method in brief: as §2
# [7] = target: T7, EPHB4 (Homo sapiens, UniProt P54760); experiment: Kinase inhibition assay (33P transfer), EPHB4; details: read-out: EPHB4-1
# T7 construct: Kinases are expressed as either kinase domains or full length constructs; made in house
# T7 sequence (P54760 16-987): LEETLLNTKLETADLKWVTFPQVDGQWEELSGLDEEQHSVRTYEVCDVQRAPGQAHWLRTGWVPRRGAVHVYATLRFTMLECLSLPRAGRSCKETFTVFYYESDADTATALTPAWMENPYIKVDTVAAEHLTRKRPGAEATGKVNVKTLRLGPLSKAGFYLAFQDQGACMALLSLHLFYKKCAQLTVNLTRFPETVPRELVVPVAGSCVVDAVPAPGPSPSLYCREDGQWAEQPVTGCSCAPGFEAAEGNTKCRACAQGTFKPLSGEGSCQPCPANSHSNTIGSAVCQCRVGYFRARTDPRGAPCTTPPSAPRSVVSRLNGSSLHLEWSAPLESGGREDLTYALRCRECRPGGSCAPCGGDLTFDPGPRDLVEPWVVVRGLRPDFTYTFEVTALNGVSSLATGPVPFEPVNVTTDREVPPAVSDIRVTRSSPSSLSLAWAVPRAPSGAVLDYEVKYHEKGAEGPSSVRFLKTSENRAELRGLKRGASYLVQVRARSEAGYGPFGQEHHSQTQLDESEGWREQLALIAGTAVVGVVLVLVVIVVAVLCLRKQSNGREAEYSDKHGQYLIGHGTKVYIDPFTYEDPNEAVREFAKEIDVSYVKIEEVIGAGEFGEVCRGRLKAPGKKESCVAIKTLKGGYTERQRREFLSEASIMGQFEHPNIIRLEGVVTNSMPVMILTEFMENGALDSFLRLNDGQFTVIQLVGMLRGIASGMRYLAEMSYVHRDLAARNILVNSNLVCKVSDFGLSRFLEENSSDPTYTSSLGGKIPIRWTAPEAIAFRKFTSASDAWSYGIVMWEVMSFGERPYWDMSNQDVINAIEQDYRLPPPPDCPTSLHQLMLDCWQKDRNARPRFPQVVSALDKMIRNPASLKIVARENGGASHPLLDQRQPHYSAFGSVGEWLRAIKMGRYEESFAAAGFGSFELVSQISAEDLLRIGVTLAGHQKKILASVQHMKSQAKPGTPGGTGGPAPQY
# [8] = target: T8, EGFR (Homo sapiens, UniProt P00533); experiment: Kinase inhibition assay (33P transfer), EGFR; details: Table 2, kinase inhibition class; read-out: EGFR-1
# T8 construct: Kinases are expressed as either kinase domains or full length constructs; made in house
# Method in brief: as §1
# [9] = target: T9, Kdr (Homo sapiens, UniProt P35968); experiment: Kinase inhibition assay (33P transfer), Kdr; details: Table 3; read-out: KDR-1
# T9 construct: Kinases are expressed as either kinase domains or full length constructs; made in house
# Method in brief: as §2
# [10] = target: T10, c-Met (Homo sapiens, UniProt P08581); experiment: Kinase inhibition assay (33P transfer), c-Met; details: Table 2, kinase inhibition class; read-out: Met-1
# T10 construct: Kinases are expressed as either kinase domains or full length constructs; made in house
# Method in brief: as §1
# [11] = target: T11, AKT (Homo sapiens, UniProt Q9Y243); experiment: Kinase inhibition assay (33P transfer), AKT; details: Table 2, kinase inhibition class; read-out: AKT3-1
# T11 construct: Kinases are expressed as either kinase domains or full length constructs; made in house
# Method in brief: as §2
# T1 sequence (Q02763 23-1124, species assumed): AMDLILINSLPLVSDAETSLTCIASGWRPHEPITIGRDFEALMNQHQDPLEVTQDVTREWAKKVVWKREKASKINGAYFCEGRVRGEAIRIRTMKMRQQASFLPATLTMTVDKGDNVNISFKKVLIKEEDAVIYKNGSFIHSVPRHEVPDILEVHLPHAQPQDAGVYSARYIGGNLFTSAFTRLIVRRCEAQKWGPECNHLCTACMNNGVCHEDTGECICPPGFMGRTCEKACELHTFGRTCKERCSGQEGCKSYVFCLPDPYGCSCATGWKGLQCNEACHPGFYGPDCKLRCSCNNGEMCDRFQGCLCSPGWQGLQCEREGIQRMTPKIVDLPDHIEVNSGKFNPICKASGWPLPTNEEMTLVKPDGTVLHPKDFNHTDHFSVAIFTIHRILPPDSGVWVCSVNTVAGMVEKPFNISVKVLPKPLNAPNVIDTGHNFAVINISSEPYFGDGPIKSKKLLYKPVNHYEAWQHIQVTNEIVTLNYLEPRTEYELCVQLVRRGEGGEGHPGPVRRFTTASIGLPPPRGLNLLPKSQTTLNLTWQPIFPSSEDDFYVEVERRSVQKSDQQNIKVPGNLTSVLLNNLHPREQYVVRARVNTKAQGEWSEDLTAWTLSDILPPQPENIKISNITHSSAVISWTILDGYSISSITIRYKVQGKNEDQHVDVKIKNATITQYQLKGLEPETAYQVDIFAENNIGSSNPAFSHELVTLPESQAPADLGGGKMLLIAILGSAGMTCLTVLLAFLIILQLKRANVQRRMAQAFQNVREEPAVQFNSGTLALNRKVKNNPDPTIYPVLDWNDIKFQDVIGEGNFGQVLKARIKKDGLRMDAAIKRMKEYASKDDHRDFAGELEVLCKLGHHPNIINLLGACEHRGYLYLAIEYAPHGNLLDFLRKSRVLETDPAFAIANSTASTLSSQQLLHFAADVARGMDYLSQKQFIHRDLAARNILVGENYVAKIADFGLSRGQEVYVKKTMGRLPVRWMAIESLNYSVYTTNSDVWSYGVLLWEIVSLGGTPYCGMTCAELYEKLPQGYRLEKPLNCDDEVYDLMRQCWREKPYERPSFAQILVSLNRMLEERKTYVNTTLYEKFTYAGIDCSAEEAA
# T2 sequence (P06239 whole entry, species assumed, the tested form may be a part): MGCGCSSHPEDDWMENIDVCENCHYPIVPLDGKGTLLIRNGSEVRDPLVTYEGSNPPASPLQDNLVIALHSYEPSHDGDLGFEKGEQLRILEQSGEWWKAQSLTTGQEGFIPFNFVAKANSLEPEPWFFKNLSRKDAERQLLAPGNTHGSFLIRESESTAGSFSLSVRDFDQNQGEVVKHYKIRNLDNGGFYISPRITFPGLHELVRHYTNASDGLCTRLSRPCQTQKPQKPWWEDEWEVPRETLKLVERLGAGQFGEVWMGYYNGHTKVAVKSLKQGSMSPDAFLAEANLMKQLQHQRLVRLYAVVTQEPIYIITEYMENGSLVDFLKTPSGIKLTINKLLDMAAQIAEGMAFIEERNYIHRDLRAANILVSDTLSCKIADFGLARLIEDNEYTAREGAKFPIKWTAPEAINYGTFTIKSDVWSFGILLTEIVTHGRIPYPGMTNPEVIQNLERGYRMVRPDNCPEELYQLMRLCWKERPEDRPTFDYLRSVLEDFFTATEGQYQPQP
# T10 sequence (P08581 25-1390): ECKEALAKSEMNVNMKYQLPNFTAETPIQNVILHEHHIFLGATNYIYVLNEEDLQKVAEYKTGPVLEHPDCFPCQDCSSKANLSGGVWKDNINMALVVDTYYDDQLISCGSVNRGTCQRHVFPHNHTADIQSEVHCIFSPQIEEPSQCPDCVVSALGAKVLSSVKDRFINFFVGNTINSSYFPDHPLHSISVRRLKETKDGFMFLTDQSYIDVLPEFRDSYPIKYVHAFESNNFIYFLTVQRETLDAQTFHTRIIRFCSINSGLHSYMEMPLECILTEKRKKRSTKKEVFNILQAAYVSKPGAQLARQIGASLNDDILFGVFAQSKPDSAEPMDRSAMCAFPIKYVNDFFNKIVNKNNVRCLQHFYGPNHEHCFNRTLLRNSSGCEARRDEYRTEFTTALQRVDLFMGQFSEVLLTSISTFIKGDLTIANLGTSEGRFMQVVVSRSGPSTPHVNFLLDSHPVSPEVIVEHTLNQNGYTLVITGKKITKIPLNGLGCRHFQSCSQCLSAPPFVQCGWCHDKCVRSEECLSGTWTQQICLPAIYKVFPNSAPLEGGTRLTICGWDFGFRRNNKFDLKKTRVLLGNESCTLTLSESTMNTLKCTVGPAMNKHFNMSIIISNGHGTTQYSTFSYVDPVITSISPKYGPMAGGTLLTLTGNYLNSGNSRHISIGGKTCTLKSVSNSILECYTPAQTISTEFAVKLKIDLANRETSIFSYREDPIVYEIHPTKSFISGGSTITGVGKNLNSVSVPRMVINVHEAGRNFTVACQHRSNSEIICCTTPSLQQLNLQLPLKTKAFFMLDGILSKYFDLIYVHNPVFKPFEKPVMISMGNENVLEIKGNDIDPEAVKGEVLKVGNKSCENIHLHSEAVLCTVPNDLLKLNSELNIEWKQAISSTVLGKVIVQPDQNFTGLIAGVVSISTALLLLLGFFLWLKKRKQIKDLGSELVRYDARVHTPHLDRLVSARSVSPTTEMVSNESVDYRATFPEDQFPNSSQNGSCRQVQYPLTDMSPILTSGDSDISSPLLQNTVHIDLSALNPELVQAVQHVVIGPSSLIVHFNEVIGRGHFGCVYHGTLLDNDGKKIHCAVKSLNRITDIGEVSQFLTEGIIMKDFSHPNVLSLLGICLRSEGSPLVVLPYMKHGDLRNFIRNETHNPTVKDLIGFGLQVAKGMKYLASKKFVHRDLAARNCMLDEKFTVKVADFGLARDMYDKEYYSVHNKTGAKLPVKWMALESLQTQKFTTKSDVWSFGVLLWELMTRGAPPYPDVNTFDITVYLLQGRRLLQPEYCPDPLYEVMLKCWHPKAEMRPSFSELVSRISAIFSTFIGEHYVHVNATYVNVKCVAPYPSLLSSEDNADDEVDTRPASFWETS
# T11 sequence (Q9Y243 whole entry, the tested form may be a part): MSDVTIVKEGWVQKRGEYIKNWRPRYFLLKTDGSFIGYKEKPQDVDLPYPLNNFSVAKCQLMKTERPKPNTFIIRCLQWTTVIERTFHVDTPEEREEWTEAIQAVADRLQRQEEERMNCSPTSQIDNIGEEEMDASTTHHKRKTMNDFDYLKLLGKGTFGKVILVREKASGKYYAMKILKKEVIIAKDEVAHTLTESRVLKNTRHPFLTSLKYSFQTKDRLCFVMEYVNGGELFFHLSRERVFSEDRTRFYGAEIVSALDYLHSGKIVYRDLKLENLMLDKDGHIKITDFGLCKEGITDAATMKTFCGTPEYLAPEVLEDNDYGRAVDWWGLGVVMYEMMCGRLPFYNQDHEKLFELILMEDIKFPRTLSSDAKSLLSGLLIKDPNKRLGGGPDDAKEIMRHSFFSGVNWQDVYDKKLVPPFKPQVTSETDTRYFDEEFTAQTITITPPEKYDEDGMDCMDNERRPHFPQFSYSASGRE
# T3 sequence (P08069 31-1367): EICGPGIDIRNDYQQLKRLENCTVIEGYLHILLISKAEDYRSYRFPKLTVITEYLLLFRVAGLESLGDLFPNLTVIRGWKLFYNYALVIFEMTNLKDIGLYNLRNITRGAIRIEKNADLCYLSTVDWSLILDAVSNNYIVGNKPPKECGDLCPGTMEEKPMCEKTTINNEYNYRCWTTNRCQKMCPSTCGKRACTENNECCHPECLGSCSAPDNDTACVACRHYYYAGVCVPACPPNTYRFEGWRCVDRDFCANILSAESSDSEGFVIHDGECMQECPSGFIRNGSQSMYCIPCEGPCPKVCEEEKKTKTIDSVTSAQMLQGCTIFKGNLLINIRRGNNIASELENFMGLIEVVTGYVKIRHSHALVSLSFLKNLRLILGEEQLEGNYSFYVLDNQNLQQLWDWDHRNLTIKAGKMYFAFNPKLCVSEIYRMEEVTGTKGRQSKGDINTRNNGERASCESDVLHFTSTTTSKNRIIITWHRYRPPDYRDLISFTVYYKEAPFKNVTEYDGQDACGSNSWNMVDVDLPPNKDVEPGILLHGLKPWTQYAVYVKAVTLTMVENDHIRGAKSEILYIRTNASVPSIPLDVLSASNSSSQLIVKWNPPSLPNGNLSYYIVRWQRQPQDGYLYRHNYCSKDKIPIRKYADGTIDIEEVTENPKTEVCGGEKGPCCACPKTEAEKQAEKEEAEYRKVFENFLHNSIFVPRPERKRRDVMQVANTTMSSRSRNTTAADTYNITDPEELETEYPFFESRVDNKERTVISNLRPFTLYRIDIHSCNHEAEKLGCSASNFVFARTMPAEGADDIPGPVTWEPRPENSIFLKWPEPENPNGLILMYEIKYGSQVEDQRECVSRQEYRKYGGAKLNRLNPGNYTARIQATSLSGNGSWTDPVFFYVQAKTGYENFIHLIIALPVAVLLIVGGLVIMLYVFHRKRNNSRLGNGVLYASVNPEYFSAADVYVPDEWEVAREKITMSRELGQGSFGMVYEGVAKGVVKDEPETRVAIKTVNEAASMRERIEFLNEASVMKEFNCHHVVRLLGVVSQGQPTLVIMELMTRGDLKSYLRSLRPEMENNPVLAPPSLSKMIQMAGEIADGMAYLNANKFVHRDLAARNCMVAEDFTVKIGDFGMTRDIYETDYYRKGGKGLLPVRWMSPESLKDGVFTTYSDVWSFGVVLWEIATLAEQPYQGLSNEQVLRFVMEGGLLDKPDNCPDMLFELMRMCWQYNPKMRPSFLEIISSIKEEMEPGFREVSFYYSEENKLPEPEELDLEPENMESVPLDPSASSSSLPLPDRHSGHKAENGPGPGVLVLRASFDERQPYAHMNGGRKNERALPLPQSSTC
Compound,IC50 [1] [µM],IC50 [2] [µM],IC50 [3] [µM],IC50 [4] [µM],IC50 [5] [µM],IC50 [6] [µM],IC50 [7] [µM],IC50 [8] [µM],IC50 [9] [µM],IC50 [10] [µM],IC50 [11] [µM]
COc1cc(Nc2ncnc(Nc3cccc(OC(F)(F)F)c3)n2)cc(OC)c1OC [Compound 250],> 10.3,0.915 to 5.49,< 0.915,> 10.3,0.915 to 5.49,> 10.3,> 10.3,< 0.915,5.49 to 8,> 10.3,> 10.3
COc1ccc(Nc2ncnc(Nc3ccccc3C)n2)cc1OC [Compound 111],> 13.3,1.19 to 7.11,< 1.19,> 13.3,> 13.3,> 13.3,> 13.3,< 1.19,1.19 to 7.11,> 13.3,> 13.3
Oc1cccc(Nc2ncnc(Nc3ccc(OCc4ccccc4)cc3)n2)c1 [Compound 159],6.23 to 9.08,> 11.7,9.08 to 11.7,> 11.7,> 11.7,6.23 to 9.08,6.23 to 9.08,< 1.04,6.23 to 9.08,1.04 to 6.23,1.04 to 6.23
COc1ccc(Nc2ncnc(Nc3cccc(Br)c3)n2)cc1OC [Compound 118],> 11.2,8.7 to 11.2,0.994 to 5.97,0.994 to 5.97,> 11.2,> 11.2,0.994 to 5.97,< 0.994,> 11.2,> 11.2,> 11.2
COCCOc1ccc(Nc2ncnc(-c3ccccc3)n2)cc1 [Compound 155],> 14,> 14,> 14,> 14,,> 14,> 14,> 14,> 14,> 14,> 14
COc1cc(Nc2ncnc(Nc3ccc(S(=O)(=O)NC(C)=O)cc3)n2)cc(OC)c1OC [Compound 255],> 9.48,> 9.48,> 9.48,> 9.48,,> 9.48,> 9.48,> 9.48,< 0.843,> 9.48,> 9.48
COc1ccc(Nc2ncnc(Nc3ccc(Br)cc3F)n2)cc1OC [Compound 117],> 10.7,5.71 to 8.33,> 10.7,> 10.7,,8.33 to 10.7,8.33 to 10.7,5.71 to 8.33,0.952 to 5.71,8.33 to 10.7,5.71 to 8.33
COc1cc(Nc2ncnc(-c3cccc(Cl)c3)n2)cc(OC)c1OC [Compound 220],> 12.1,> 12.1,> 12.1,> 12.1,,> 12.1,> 12.1,> 12.1,> 12.1,> 12.1,> 12.1
COc1ccc(Nc2ncnc(Nc3ccc(F)c(Cl)c3)n2)cc1OC [Compound 113],> 12,> 12,< 1.06,> 12,,> 12,6.39 to 9.31,1.06 to 6.39,> 12,> 12,> 12
COc1ccc(CNc2ncnc(Nc3cc(OC)c(OC)c(OC)c3)n2)cc1 [Compound 80],> 11.3,> 11.3,> 11.3,> 11.3,,> 11.3,> 11.3,> 11.3,> 11.3,> 11.3,> 11.3

# Second part, the compound after the results:
IC50 [1] [µM],IC50 [2] [µM],IC50 [3] [µM],IC50 [4] [µM],IC50 [5] [µM],IC50 [6] [µM],IC50 [7] [µM],IC50 [8] [µM],IC50 [9] [µM],IC50 [10] [µM],IC50 [11] [µM],Compound
6.29 to 9.18,1.05 to 6.29,1.05 to 6.29,> 11.8,1.05 to 6.29,> 11.8,> 11.8,1.05 to 6.29,< 1.05,6.29 to 9.18,> 11.8,COc1cc(Nc2ncnc(Nc3cc(C)ccc3C)n2)cc(OC)c1OC [Compound 932]
,> 10.9,< 0.97,> 10.9,> 10.9,> 10.9,0.97 to 5.82,0.97 to 5.82,0.97 to 5.82,> 10.9,> 10.9,COc1cc(Nc2ncnc(Nc3ccc(C)c([N+](=O)[O-])c3)n2)cc(OC)c1OC [Compound 934]
,1.01 to 6.04,1.01 to 6.04,> 11.3,1.01 to 6.04,> 11.3,6.04 to 8.81,< 1.01,1.01 to 6.04,> 11.3,> 11.3,COc1cc(Nc2ncnc(Nc3cccc(C(=O)O)c3)n2)cc(OC)c1OC [Compound 933]
6.13 to 8.94,8.94 to 11.5,6.13 to 8.94,> 11.5,,1.02 to 6.13,> 11.5,6.13 to 8.94,1.02 to 6.13,1.02 to 6.13,1.02 to 6.13,CCOc1ccc(Nc2ncnc(-n3c(N)nc4ccccc43)n2)cc1OCC [Compound 299]
> 10.1,> 10.1,> 10.1,> 10.1,,> 10.1,> 10.1,> 10.1,0.902 to 5.41,> 10.1,> 10.1,COCCOc1ccc(Nc2ncnc(Nc3ccc(C)c(F)c3)n2)cc1OCCOC [Compound 322]
